From patent publication US6914045B2, “Glycopeptide antibiotics” (Wyeth Holdings Corporation, priority 2001, dated 2005)
≈ marks a conversion by molar mass, not a printed value. Numbered stars: 1 amine (or outer) side, 2 acyl side, 3 side chain; on linkers, the order of the positions; unused ones are H or OH. Square brackets hold non-standard residues; d marks the D form. Peptide text beside a SMILES is read from it. ξ: configuration not given here. X1 = N=C1NCC(C(O)C(N[*:1])C(=O)[*:2])N1C1OC(CO)C(O)C(O)C1O; ξEnduracididine(βξ-OH,4'ξ) = N=C1NCC(C(O)C(N)C(=O)O)N1; Tyr(3,5-Br2) = N[CH](Cc1cc(Br)c(O)c(Br)c1)C(=O)O; ξPhe(βξ-Me) = CC(c1ccccc1)C(N)C(=O)O

Experiments:
Experiment in all cases: in vitro antibacterial evaluation, MIC by broth dilution
Format in all cases: cell-based
Conditions in all cases: broth dilution, 18 hours at 35° C.
Enterococcus sp. = test system: Enterococcus sp.
Procedure: (§1) Methods for in vitro Antibacterial Evaluation (Table 1)
(§2) The minimum inhibitory concentration (MIC), the lowest concentration of the antibiotic which inhibits growth of the test organism, is determined by the broth dilution method using Muller-Hinton II […] (Baltimore Biological Laboratories) following the recommendations of the National Committee for Clinical Laboratory Standards [Methods for dilution antimicrobial susceptibility tests for bacteria that grow aerobically, approved standard M7-A2, National Committee for Clinical Laboratory Standards, Villanova, Pa.].
(§3) An inoculum level of 5×10^5 CFU/mL, and a range of antibiotic concentrations (64-0.06 μg/mL) is used. […] The test organisms include a spectrum of Gram-positive bacteria comprised of Staphylococcus sp., Streptococcus sp. and Enterococcus sp. These organisms include recent clinical isolates that are resistant to methicillin, penicillin and/or vancomycin.

Streptococcus sp. = test system: Streptococcus sp.
Procedure: as §1, §2, §3

Staphylococcus sp. = test system: Staphylococcus sp.
Procedure: as §1, §2, §3

Escherichia coli = test system: Escherichia coli
Summary of the method: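 Broth dilution MIC per NCCLS M7-A2 in Mueller-Hinton II medium, inoculum 5×10^5 CFU/mL, antibiotic range 64-0.06 μg/mL. MIC taken as lowest concentration inhibiting growth.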

MIC Enterococcus faecalis (ATCC 29212) (Enterococcus sp.; strain ATCC 29212): >128 µg/mL | MIC Enterococcus faecalis (GC 2242) (Enterococcus sp.; strain GC 2242): >128 µg/mL | MIC Enterococcus faecium (GC 2243) (Enterococcus sp.; strain GC 2243): >128 µg/mL | MIC Enterococcus faecalis (GC 4552) (Enterococcus sp.; strain GC 4552): >128 µg/mL | MIC Enterococcus faecalis (GC 4553) (Enterococcus sp.; strain GC 4553): >128 µg/mL | MIC Enterococcus faecalis (GC 4554) (Enterococcus sp.; strain GC 4554): >128 µg/mL | MIC Enterococcus faecium (GC 4556) (Enterococcus sp.; strain GC 4556): >128 µg/mL | MIC Enterococcus faecium (GC 4557) (Enterococcus sp.; strain GC 4557): >128 µg/mL | MIC Enterococcus avium (GC 4558) (Enterococcus sp.; strain GC 4558): >128 µg/mL | MIC Streptococcus agalactiae (GC 4564) (Streptococcus sp.; strain GC 4564): >128 µg/mL | MIC Streptococcus pneumoniae (GC 4565) (Streptococcus sp.; strain GC 4565): >128 µg/mL | MIC Streptococcus pyogenes (ID-3187) (Streptococcus sp.; strain ID-3187): >128 µg/mL | MIC Staphylococcus aureus (ATCC 29213) (Staphylococcus sp.; strain ATCC 29213): >128 µg/mL | MIC Staphylococcus aureus (GC 1131) (Staphylococcus sp.; strain GC 1131): >128 µg/mL | MIC Staphylococcus aureus (GC 4541) (Staphylococcus sp.; strain GC 4541): >128 µg/mL | MIC Staphylococcus aureus (GC 4542) (Staphylococcus sp.; strain GC 4542): >128 µg/mL | MIC Staphylococcus aureus-SMITH (GC 4543) (Staphylococcus sp.; strain GC 4543): >128 µg/mL | MIC Staphylococcus aureus (GC 4544) (Staphylococcus sp.; strain GC 4544): >128 µg/mL | MIC Staphylococcus aureus (GC 4545) (Staphylococcus sp.; strain GC 4545): >128 µg/mL | MIC Coagulase Negative Staphylococcus (GC 4547) (Staphylococcus sp.; strain GC 4547): >128 µg/mL | MIC Coagulase Negative Staphylococcus (GC 4548) (Staphylococcus sp.; strain GC 4548): >128 µg/mL | MIC Coagulase Negative Staphylococcus (GC 4549) (Staphylococcus sp.; strain GC 4549): 128 µg/mL (≈ 113 µM) | MIC Coagulase Negative Staphylococcus (GC 4551) (Staphylococcus sp.; strain GC 4551): >128 µg/mL | MIC Coagulase Negative Staphylococcus (ID-3941) (Staphylococcus sp.; strain ID-3941): 128 µg/mL (≈ 113 µM) | MIC Escherichia coli (ATCC 25922) (Escherichia coli; strain ATCC 25922): >128 µg/mL | MIC Escherichia coli (GC 4559) (Escherichia coli; strain GC 4559): >128 µg/mL | MIC Escherichia coli (GC 4560) (Escherichia coli; strain GC 4560): 64 µg/mL (≈ 56.7 µM)
Structure (SMILES): CC(c1ccccc1)C1NC(=O)CNC(=O)C(CO)NC(=O)C(C(O)C2CNC(=N)N2C2OC(CO)C(O)C(O)C2O)NC(=O)C(C(O)C2CNC(=N)N2)NC(=O)C(Cc2cc(Br)c(O)c(Br)c2)NC1=O (stereo not drawn) [Example 3, Cyclo[glycyl-β-methylphenylalanyl-3,5-dibromotyrosyl-3-(2-iminoimidazolidin-4-yl)seryl-3-(3-hexopyranosyl-2-iminoimidazolidin-4-yl)serylseryl]] (cyclo(G[ξPhe(βξ-Me)][Tyr(3,5-Br2)][ξEnduracididine(βξ-OH,4'ξ)][X1]S); configuration not given here)
MIC Staphylococcus haemolyticus (GC 4546) (Staphylococcus sp.; strain GC 4546): >128 µg/mL
